Where a SMILES comes first, the peptide text is derived from it. [ ]: non-standard residue; d: D form.
Columns and labels:
NK-1 receptor = target: T1, NK-1 receptor (Cavia porcellus, UniProt P30547); assay: NK-1 receptor binding (125I-Bolton-Hunter substance P) in guinea pig lung membranes; details: 0.1 nM 125I-Bolton-Hunter Lys-3 substance P, mean ± S.E.M.
T1 construct: tissue Keystone Biologicals, Cleveland, OH; host or cells: guinea pig lung
Procedure: (§1) Receptor binding assays were performed in crude tissue membranes. The NK-1 receptor binding affinity of proposed tachykinin antagonists was evaluated in guinea pig lungs (Keystone Biologicals, Cleveland, OH, kept frozen at -80° C. until use). Affinity for the NK-2 receptor was evaluated in HSKR-1 cells which are mouse 3T3 fibroblasts expressing the human jejunal NK-2 receptor. Tissues or cells were homogenized with a Polytron in 15 volumes of 50 mM Tris-HCl buffer (pH 7.4, 4° C.) containing 120 mM NaCl and 5 mM KCl and centrifuged at 48,000×g for 12 min. at 4° C. The pellet was resuspended in 15 volumes of 50 mM Tris-HCl buffer containing 10 mM EDTA and 300 mM KCl then set on ice for 30 min. The suspension was cetrifuged as above and the pellet washed by resuspension and cetrifugation two additional times in 50 mM Tris-HCl buffer (pH 7.4, 4° C.). The final pellet was resuspended in a concentration of 20 mg/ml in incubation buffer then kept at room temperature for at least 15 min prior to use. Receptor binding was initiated by addition of 250 μl membrane preparation (final protein concentration; lungs=286 μg/tube, HSKR-1 cells=100 μg/tube) in duplicate to 0.1 nM of the following radioligands: for NK-1 receptor assays, ^125 I-Bolton-Hunter Lys-3 labeled substance P (New England Nuclear, specific activity, 2200 Ci/mmol); for NK-2 receptor assays, ^125 iodohistidyl-1-neurokinin A (Amersham, specific activity, 2000 Ci/mmol) in a final volume of 500 μl of buffer containing 50 mM Tris-HCl (pH 7.4 at room temperature), 0.1% bovine serum albumin, 2 mM MnCl2, 40 μg/ml bacitracin, 4 μg/ml leupeptin and chymostatin, 1 μM thiorphan and various doses of the tachykinin antagonists. Incubations were performed at room temperature for 90 min (NK-1 receptor assays) or 2 hr (NK-2 receptor assays); binding was terminated by addition of 50 mM Tris-HCl buffer (pH 7.4, 4° C.) and filtration under vacuum through GF/B filters presoaked with 0.1% polyethyleneimine (NK-1 receptor assays) or 0.5% bovine serum albumin (NK-2 receptor assays). Nonspecific binding was defined as binding in the presence of 1 μM substance P (NK-1 receptor assays) or neurokinin A (NK-2 receptor assays) (Peptides International, Inc., Louisville, Ky.). Specific binding was calculated by subtracting nonspecific binding from total binding and corresponded to 70-90% of total binding. Data were analyzed and IC50 values generated by nonlinear regression using an iterative curve fitting program (GraphPAD Inplot, San Diego, Calif.). Protein was determined by the method of Lowry.

[1] = target: T2, human jejunal NK-2 receptor (Homo sapiens, UniProt P21452); assay: NK-2 receptor binding (125I-neurokinin A) in HSKR-1 cell membranes; details: HSKR-1 cells (mouse 3T3 fibroblasts expressing human jejunal NK-2 receptor); 0.1 nM 125I-iodohistidyl-1-neurokinin A; mean ± S.E.M.
T2 construct: expressed in transfected cells; host or cells: HSKR-1 (mouse 3T3 fibroblasts)
T2 sequence (P21452 1-398): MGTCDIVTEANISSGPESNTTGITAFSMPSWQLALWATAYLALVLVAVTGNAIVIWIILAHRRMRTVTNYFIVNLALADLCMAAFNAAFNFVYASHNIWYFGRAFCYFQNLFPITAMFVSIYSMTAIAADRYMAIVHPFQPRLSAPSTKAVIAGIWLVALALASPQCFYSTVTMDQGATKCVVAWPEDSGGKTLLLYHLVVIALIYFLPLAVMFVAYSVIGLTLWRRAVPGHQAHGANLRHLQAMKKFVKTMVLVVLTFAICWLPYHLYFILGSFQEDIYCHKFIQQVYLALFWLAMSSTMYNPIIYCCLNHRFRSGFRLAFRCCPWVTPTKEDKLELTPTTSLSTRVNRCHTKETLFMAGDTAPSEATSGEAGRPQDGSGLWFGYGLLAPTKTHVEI
Procedure: as §1

T1 sequence (P30547 whole entry): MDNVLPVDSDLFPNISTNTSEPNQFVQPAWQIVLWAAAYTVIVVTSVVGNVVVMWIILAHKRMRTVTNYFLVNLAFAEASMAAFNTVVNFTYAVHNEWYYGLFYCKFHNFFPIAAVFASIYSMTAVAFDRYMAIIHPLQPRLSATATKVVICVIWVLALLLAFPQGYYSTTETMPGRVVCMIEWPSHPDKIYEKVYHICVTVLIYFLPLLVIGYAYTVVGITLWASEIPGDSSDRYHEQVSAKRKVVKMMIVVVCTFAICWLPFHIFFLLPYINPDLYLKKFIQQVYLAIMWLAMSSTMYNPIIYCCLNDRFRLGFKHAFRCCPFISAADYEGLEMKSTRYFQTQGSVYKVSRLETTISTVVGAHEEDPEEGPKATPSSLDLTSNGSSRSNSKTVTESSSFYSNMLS

SMILES: CC(C)C[C@@H]1NC(=O)[C@@H](Cc2c[nH]c3ccccc23)NC(=O)[C@H](Cc2ccc(O)cc2)NC(=O)CNC(=O)[C@H](Cc2c[nH]c3ccccc23)NC(=O)[C@H](CCCNC(=N)N)NC1=O [cyclo[Tyr--trp--Leu--Arg--Trp--Gly], cyclo[Tyr-trp-Leu-Arg-Trp-Gly]] (cyclo(GY[dW]LRW))
- IC50 (NK-1 receptor): 6190 ± 277 nM
- IC50 [1]: 6.79 ± 0.69 nM
